Experimental data taken from patent US20130053435A1, “Methods of Treating Alcohol Intoxication, Alcohol Use Disorders and Alcohol Abuse Which Comprises the Administration of Dihydromyricetin” (priority 2011, published 2013).
Where two headings read alike, the source gives them in different places.

Assays:
[1] = test system: benzodiazepine site of GABAARs; experiment: [3H]flunitrazepam binding in rat cortical membrane homogenates; conditions: comparative experiments
Experimental: Standard procedures for preparation of rat cortical membranes for radioligand binding assays were conducted as previously described with modifications in speed and number of centrifugation and washes, and buffer compositions. […] Naïve rat cortex was dissected from brain and homogenized in 0.32 M sucrose, 10 mM HEPES buffer (pH 7.4), and centrifuged at 650×g, 4° C. The subsequent supernatant was centrifuged at 150,000×g to collect the desired membrane-containing pellet. The pellet was washed and centrifuged two more times, first using ice-cold water and second using membrane buffer containing 50 mM KH2PO4, 1 mM EDTA, 2 mM benzamidine HCl, 0.5 mM DTT, 0.1 mM benzethonium HCl, 0.01% bacitracin, 0.2 PMSF (pH 7.4), and the resulting pellet was frozen. On the day of binding assay, the pellet was homogenized in assay buffer containing 50 mM KH2PO4, 1 mM EDTA, 200 mM KCl (pH 7.4) and centrifuged, and resuspended in fresh assay buffer to a final protein concentration of 1 mg/ml. […] Specific binding was defined as the total amount bound (zero unlabeled ligand) minus the binding in the presence of 10 μM final concentration flurazepam (Sigma). Data was analyzed with GraphPad Prism 4.0 Software (San Diego, Calif.) to determine IC50 (One-site competition equation) and Hill slope (Sigmoidal Dose-Response equation). Experiments were conducted in triplicate.

GABAARs [2] = test system: T1, GABAARs; experiment: Whole-cell patch-clamp, DGCs in hippocampal slices, acute drug application; format: cell-based, rat; conditions: in the presence of 60 mM EtOH, rat hippocampal slices
T1 construct: other: in the presence of 60 mM EtOH, rat hippocampal; shift of the GABA concentration-response curve
Experimental: (§1) Transverse slices (400 μm) of dorsal hippocampus were obtained with a Vibratome (VT 100, Technical Products International, St. Louis, Mo.) and standard techniques known in the art. Slices were continuously perfused with artificial cerebrospinal fluid (ACSF).
(§2) Signals were recorded in voltage-clamp mode with a […] amplifier (Molecular Devices, Sunnyvale, Calif.). Whole cell access resistances were in the range of <25 MΩ before electrical compensation by about 70%. During voltage-clamp recordings, access resistance was monitored by measuring the size of the capacitative transient in response to a 5 mV step command and the data were abandoned if changes >20% were encountered. At least 10 min was allowed for equilibration of the pipette solution with the intracellular milieu before commencing mIPSC recordings.
(§3) Data were analyzed using the Clampfit (Version 9.0, Molecular Devices) and the MiniAnalysis Program (versions 6.0.7, Synaptosoft, Decatur, Ga.).
(§4) The MiniAnalysis program (Synaptosoft, Decatur, Ga.) was used to analyze mIPSCs. Itonic is the averaged baseline currents of a given recording period. Itonic amplitude was calculated as the difference between the holding currents measured before and after picrotoxin (100 μM) or bicuculline (10 μM). […] Briefly, the recordings were low-pass filtered off-line (Clampfit software) at 2 kHz. The mIPSCs were detected (Mini Analysis Program, version 6.0.7) with threshold criteria of 8 pA amplitude and 20 pA*ms charge transfer. The frequency of mIPSCs was determined from all automatically detected events in a given 100 s recording period. For kinetic analysis, only single event mIPSCs with a stable baseline, sharp rising phase (10 to 90% rise time), and exponential decay were chosen during visual inspection of the recording trace. Double and multiple peak mIPSCs were excluded. At least 100 individual mIPSC events were recorded under each experimental condition. The mIPSC kinetics was obtained from analysis of the averaged chosen single events aligned with half rise time in each cell. Decay time constants were obtained by fitting a double exponential to the falling phase of the averaged mIPSCs. Itonic magnitudes were obtained from the averaged baseline current of a given recording period. Itonic amplitude was calculated as the difference between the holding currents measured before and after the application of picrotoxin (50 μM) or bicuculline (10 μM). […] The investigator performing the recordings and mIPSC analysis was blind to the treatment (vehicle, EtOH, E+D, or D) that the rats received.
(§5) As performed previously, whole-cell patch-clamp recordings in dentate gyms granule cells (DGCs) from hippocampal slices in vitro were conducted.

GABAARs [3] = test system: T2, GABAARs; experiment: as above; format: cell-based, rat; conditions: comparative experiments, rat hippocampal slices
T2 construct: DHM-enhanced Itonic; EC50 on GABAAR-mediated Itonic; other: control (vehicle) cultured neurons, DIV14; other: cultured neurons with EtOH exposure/withdrawal (60 mM, 30 min, 24 hr); EtOH-potentiated Itonic; GABAAR-mediated Ito
Experimental: as §1, §2, §3, §4, §5

GABAARs [4] = test system: T3, GABAARs; experiment: as above; format: cell-based, rat; conditions: comparative experiments, rat hippocampal slices
T3 construct: DHM-enhanced mIPSCs; other: control (vehicle) cultured neurons, DIV14; other: cultured neurons with EtOH exposure/withdrawal (60 mM, 30 min, 24 hr); EtOH-potentiated mIPSCs; effect on post-synaptic currents (mIPSCs); other: comparative experiments, rat hippocampal slices
Experimental: as §1, §2, §3, §4, §5

[5] = test system: EtOH-induced LORR in rats
Experimental: See Kakihana R, et al. (1966) Science 154(756):1574-1575). Briefly, after drug injection, rats were placed in the supine position in a V-shaped support. LORR onset time was taken from the endpoint of drug injection (i.p.). LORR duration ended when the animal was able to flip over three times in 30 s. LORR assays were blindly performed. LORR durations were reported as mean (min)±SEM.
Further LORR assays were conducted as follows.
Additional pre-treatment and post-treatment experiments were also conducted.
See Hunkeler, W., et al. (1981) Nature 290:514-516.

GABAARs [6] = test system: T2, GABAARs; experiment: Whole-cell patch-clamp, cultured hippocampal neurons, acute drug application; format: cell-based, rat; conditions: DHM 1 μM + 10 μM flumazenil
Experimental: (§6) Hippocampal neurons from embryonic day 18 rats were prepared by papain dissociation (Worthington Biochemical, Lakewood, N.J.) and cultured in neurobasal medium and B27 supplement (Invitrogen). Cultures were kept at 37° C. in a 5% CO2 humidified incubator as described previously. See Shen, Y., et al. (2011) Mol Pharmacol 79:432-442.
(§7) Hippocampal neurons from embryonic day 18 SD rats were prepared by papain dissociation (Worthington Biochemical, Lakewood, N.J.) and cultured in neurobasal medium (Invitrogen) and B27 supplement as previously reported. See Stowell J N and Craig A M (1999) Neuron 22(3):525-536. Briefly, embryos were removed from maternal rats anesthetized with isoflurane and euthanized by decapitation. Hippocampus were dissected and placed in Ca^2+- and Mg^2+-free HEPES-buffered Hank's buffered salt solution (pH 7.45). Tissues were dissociated by papain digestion followed by trituration through a Pasteur pipette and papain inhibitor treatment. Cells were pelleted and resuspended in neurobasal medium containing 2% B27 serum-free supplement, 100 U/ml penicillin, 100 μg/ml streptomycin, 0.5 mM glutamine (all from Invitrogen), and 10 μM glutamate (Sigma).
(§8) Dissociated neurons were then plated at a density of 0.3×10^5 cells/cm^2 onto 12 mm round coverslips in 24-well plates (for patch-clamp recording) and/or at a density of 0.5×10^5 cells/cm^2 in 6-well plates (for Western blot and biotinylation assays) coated with poly-D-lysine (Sigma, 50 μg/ml). Cultures were kept at 37° C. in a 5% CO2 humidified incubator. Thereafter, one third to half of the medium was replaced twice a week with neurobasal culture medium containing 2% B27 supplement, and 0.5 mM glutamine.
(§9) Control neurons were treated with corresponding vehicle as same procedure as EtOH-treated neurons. The concentration of 60 mM EtOH was selected in view of prior experiments. See Liang J et al (2007). Specifically, the concentration of 60 mM EtOH used to treat cultured neurons was chosen to match blood levels measured in adult rats after intoxication with gavage of 5 g/kg, which produced about 60 mM blood peak plasma [EtOH] lasting for about 2 to 3 hr and induced significant plasticity in GABAARs and tolerance.
(§10) Then, immediately before electrophysiological recording, cells grown on coverslips were transferred to a perfusion chamber (Warner Instruments) and visualized with an inverted microscope (TE200, Nikon). Whole-cell patch-clamp recordings were obtained from cultured neurons under voltage-clamp mode at room temperature (22-25° C.), at a holding potential of −70 mV. Cells were perfused with an extracellular solution (137 mM NaCl, 5 mM KCl, 2 mM CaCl2, 1 mM MgCl2, 20 mM glucose and 10 mM HEPES (310-320 Osm, pH adjusted to 7.40 with NaOH)). Glass pipettes were filled with the same internal solution as that in slice recordings, with an input resistance of 4-7 MΩ. GABAAR-mediated mIPSCs were recorded using the same pharmacological method as mentioned above. […] Electrical signals were amplified using a Multiclamp 200 B amplifier (Molecular Devices, USA). After establishing the whole-cell configuration, at least 10 min were allowed to elapse before the application of drug to allow the membrane patch to stabilize and exchange of ions between the recording electrode and the cytosol to occur. Data were acquired with pClamp software (Version 10.0, Molecular Devices, USA), digitized at 20 kHz (Digidata 1440A, Molecular Devices), and analyzed using the Clampfit software (Version 10.0, Molecular Devices) and the Mini Analysis Program (versions 6.0.7, Synaptosoft, Decatur, Ga.) using methods known in the art. See Hamann M, et al. (2002) Neuron 33(4):625-633; Stell B M and Mody I (2002) J Neurosci 22(10): RC223; and Liang (2007).

GABAARs [7] = test system: T3, GABAARs; experiment: as above; format: cell-based, rat; conditions: DHM 1 μM + 10 μM flumazenil
Experimental: as §6, §7, §8, §9, §10

O=c1c(-c2ccc(O)cc2)coc2cc(O)ccc12 [daidzein]
binding to GABAARs in [3H]flunitrazepam binding assay [1]: bind GABAARs

O=c1c(-c2ccc(O)cc2)coc2cc(O[C@@H]3O[C@H](CO)[C@@H](O)[C@H](O)[C@H]3O)ccc12 [daidzin, reference compound]
block of EtOH potentiation of GABAAR-mediated Itonic and mIPSCs (GABAARs [2]): do not | effect on extrasynaptic GABAAR-mediated tonic current (Itonic) (GABAARs [3]): no effect | effect on post-synaptic currents (mIPSCs) (GABAARs [4]): significantly potentiated | binding to GABAARs in [3H]flunitrazepam binding assay [1]: bind GABAARs

CCOC(=O)c1ncn2c1CN(C)C(=O)c1cc(F)ccc1-2 [flumazenil, reference compound]
LORR duration ([5]; flumazenil 10 mg/kg + DHM 3 mg/kg + EtOH): 56.1 ± 4.6 min | LORR duration ([5]; flumazenil 10 mg/kg + DHM 10 mg/kg + EtOH): 29.3 ± 4.8 min | LORR duration ([5]; flumazenil 10 mg/kg co-injected with EtOH, no DHM): 71.1 ± 4.8 min | LORR duration ([5]; flumazenil 30 mg/kg + DHM 3 mg/kg + EtOH): 58.2 ± 3.9 min | DHM-enhanced Itonic (GABAARs [6]): 143.0±3.2% | DHM-enhanced mIPSCs (GABAARs [7]): 125.7±3.9%

O=c1c(-c2ccc(O)cc2)coc2cc(O)cc(O)c12 [genistein]
binding to GABAARs in [3H]flunitrazepam binding assay [1]: do not bind

O=c1c(O)c(-c2cc(O)c(O)c(O)c2)oc2cc(O)cc(O)c12 [myricetin]
binding to GABAARs in [3H]flunitrazepam binding assay [1]: do not bind

O=c1c(-c2ccc(O)cc2)coc2c([C@@H]3O[C@H](CO)[C@@H](O)[C@H](O)[C@H]3O)c(O)ccc12 [puerarin]
binding to GABAARs in [3H]flunitrazepam binding assay [1]: do not bind

O=c1c(O)c(-c2ccc(O)c(O)c2)oc2cc(O)cc(O)c12 [quercetin, reference compound]
block of EtOH potentiation of GABAAR-mediated Itonic and mIPSCs (GABAARs [2]): do not | effect on extrasynaptic GABAAR-mediated tonic current (Itonic) (GABAARs [3]): no effect | effect on post-synaptic currents (mIPSCs) (GABAARs [4]): no effect | binding to GABAARs in [3H]flunitrazepam binding assay [1]: do not bind
